Assay in one series: not given
The conditions noted are these: according to perflavory.com; cited from earlier work.
In the case of `CC1CC(CC2CCC(N)C(C)C2)CCC1N` (stereo not shown) [4,4′-methylene-bis(2-methylcyclohexylamine)], the “water solubility of the diamine” value is listed as “around 88 mg/l”.

The series is the same for the next values; noted with them: cited in Wikipedia; cited from earlier work.
`NC1CCC(CC2CCC(N)CC2)CC1` (stereo not shown) [4,4′-methylene-bis(cyclohexylamine)]: the “water solubility of the diamine” value is on record as “about 4 g/l”.

Assay in a further series: not given
The settings on record: salts of 1,2,3,4-butanetetracarboxylic acid; 1 ml distilled water with around 20 to 40% by weight of salt, stirred 15 minutes.
For `Nc1n[nH]c(N)n1` [Example V38], the Salt is water-soluble result was “no”.

On to `Nc1ccc(Cc2ccc(N)cc2)cc1` [Example V39], for which the Salt is water-soluble entry was “no”. Same read-out and setting: the entry for “Tricyclo[5.2.1.0^2,6]decane-3(4),8(9)-bis(methanammonium)-dihydrogen-1,2,3,4-butane-tetracarboxylate [Example B20]” is “yes”.

Still in this series, the particulars now being: salts of 1,2,3,4-cyclobutanetetracarboxylic acid; 1 ml distilled water with around 20 to 40% by weight of salt, stirred 15 minutes.
For the compound `NCC1CC2CC1CC2CN.O=C(O)C1C(C(=O)O)C(C(=O)O)C1C(=O)O` (stereo not shown) [Example B21, Norbornane bis(methylammonium)-dihydrogen-1,2,3,4-cyclobutanetetracarboxylate], the Salt is water-soluble entry is given as “yes”. The same measure, in the same setting: as for `NCCCCN.O=C(O)C1C(C(=O)O)C(C(=O)O)C1C(=O)O` (stereo not shown) [Example V42], the entry is “yes”; as for `CC1(C)CC(N)CC(C)(CN)C1.O=C(O)C1C(C(=O)O)C(C(=O)O)C1C(=O)O` (stereo not shown) [Example V54], “yes”; as for `NCc1cccc(CN)c1.O=C(O)C1C(C(=O)O)C(C(=O)O)C1C(=O)O` (stereo not shown) [Example V55], “yes”. Take “Tricyclo[5.2.1.0^2,6]decane-3(4),8(9)-bis(methanammonium)-dihydrogen-1,2,3,4-cyclobutanetetracarboxylate [Example B22]”: the Salt is water-soluble result is “yes”.

Still in this series, the particulars now being: salts of 1,2,3,4-cyclopentanetetracarboxylic acid; 1 ml distilled water with around 20 to 40% by weight of salt, stirred 15 minutes.
Take `NCC1CC2CC1CC2CN.O=C(O)C1CC(C(=O)O)C(C(=O)O)C1C(=O)O` (stereo not shown) [Example B23, Norbornane bis(methylammonium)-dihydrogen-1,2,3,4-cyclopentanetetracarboxylate]: the Salt is water-soluble entry is recorded as “yes”. Take `NCCCCN.O=C(O)C1CC(C(=O)O)C(C(=O)O)C1C(=O)O` (stereo not shown) [Example V57]: the Salt is water-soluble entry is “yes”. Still for that read-out and setting: the entry for `CC(CN)CCCN.O=C(O)C1CC(C(=O)O)C(C(=O)O)C1C(=O)O` (stereo not shown) [Example V60] is “yes”. As for `NCCCCCCCCCN.O=C(O)C1CC(C(=O)O)C(C(=O)O)C1C(=O)O` (stereo not shown) [Example V63], the Salt is water-soluble entry was “yes”.

With `CC1(C)CC(N)CC(C)(CN)C1.O=C(O)C1CC(C(=O)O)C(C(=O)O)C1C(=O)O` (stereo not shown) [Example V69], the Salt is water-soluble entry is “yes”. The same measure, in the same setting: the entry for “Tricyclo[5.2.1.0^2,6]decane-3(4),8(9)-bis(methanammonium)-dihydrogen-1,2,3,4-cyclopentanetetracarboxylate [Example B24]” is “yes”.

Still in this series, the particulars now being: salts of 1,2,4,5-cyclohexanetetracarboxylic acid; 1 ml distilled water with around 20 to 40% by weight of salt, stirred 15 minutes.
Take `NCCCCN.O=C(O)C1CC(C(=O)O)C(C(=O)O)CC1C(=O)O` (stereo not shown) [Example V72]: the Salt is water-soluble entry is “yes”.

Turning to `NCCCCCCCCCN.O=C(O)C1CC(C(=O)O)C(C(=O)O)CC1C(=O)O` (stereo not shown) [Example V78], the Salt is water-soluble result is given as “yes”. Turning to `CC1(C)CC(N)CC(C)(CN)C1.O=C(O)C1CC(C(=O)O)C(C(=O)O)CC1C(=O)O` (stereo not shown) [Example V84], the Salt is water-soluble entry is “yes”. Still for that read-out and setting: the entry for `NCc1cccc(CN)c1` [Example V85] is “yes”; for “Norbornane bis(methylammonium)-dihydrogen-1,2,4,5-cyclohexanetetracarboxylate [Example B25]” it is “yes”. With “Tricyclo[5.2.1.0^2,6]decane-3(4),8(9)-bis(methanammonium)-dihydrogen-1,2,4,5-cyclohexanetetracarboxylate [Example B26]”, the Salt is water-soluble result is reported as “yes”.

The same series, now with this note: salts of 3,3′,4,4′-benzophenonetetracarboxylic acid; 1 ml distilled water with around 20 to 40% by weight of salt, stirred 15 minutes.
For the compound `NCCCCN.O=C(c1ccc(C(=O)O)c(C(=O)O)c1)c1ccc(C(=O)O)c(C(=O)O)c1` [Example V86], the Salt is water-soluble entry was “no”. As for `CC(C)(CN)CN.O=C(c1ccc(C(=O)O)c(C(=O)O)c1)c1ccc(C(=O)O)c(C(=O)O)c1` [Example V88], the Salt is water-soluble entry is listed as “yes”. On to `NCCCCCCCCCCCCN.O=C(c1ccc(C(=O)O)c(C(=O)O)c1)c1ccc(C(=O)O)c(C(=O)O)c1` [Example V94], for which the Salt is water-soluble result is reported as “no”. Consider `CC1(C)CC(N)CC(C)(CN)C1.O=C(c1ccc(C(=O)O)c(C(=O)O)c1)c1ccc(C(=O)O)c(C(=O)O)c1` [Example V95], for which the Salt is water-soluble result is reported as “yes”.

On to `CC1CC(CC2CCC(N)C(C)C2)CCC1N.O=C(c1ccc(C(=O)O)c(C(=O)O)c1)c1ccc(C(=O)O)c(C(=O)O)c1` [Example V97], for which the Salt is water-soluble entry is on record as “yes”. As for `Nc1cccc(N)n1` [Example V104], the Salt is water-soluble entry is on record as “no”. With “Norbornane bis(methylammonium)-dihydrogen-3,3′,4,4′-benzophenonetetracarboxylate [Example B27]”, the Salt is water-soluble entry is “yes”. On the same count and under the same terms, as for “Tricyclo[5.2.1.0^2,6]decane-3(4),8(9)-bis(methanammonium)-dihydrogen-3,3′,4,4′-benzophenonetetracarboxylate [Example B28]”, the entry is “yes”.

Still in this series, the particulars now being: salts of tetrahydrofuran-2,3,4,5-tetracarboxylic acid; 1 ml distilled water with around 20 to 40% by weight of salt, stirred 15 minutes; no = no clear solution.
With `NCCCCN.O=C(O)C1OC(C(=O)O)C(C(=O)O)C1C(=O)O` (stereo not shown) [Example B2, Butane-1,4-diammonium-dihydrogen-tetrahydrofuran-2,3,4,5-tetracarboxylate], the Salt is water-soluble result is “yes”.

For the compound `NCCCCCN.O=C(O)C1OC(C(=O)O)C(C(=O)O)C1C(=O)O` (stereo not shown) [Example B3, Pentane-1,5-diammonium-dihydrogen-tetrahydrofuran-2,3,4,5-tetracarboxylate], the Salt is water-soluble entry is “yes”. As for `CC(C)(CN)CN.O=C(O)C1OC(C(=O)O)C(C(=O)O)C1C(=O)O` (stereo not shown) [Example B4, 2,2-Dimethylpropane-1,3-diammonium-dihydrogen-tetrahydrofuran-2,3,4,5-tetracarboxylate], the Salt is water-soluble entry was “yes”. On the same count and under the same terms, the entry for `CC(CN)CCCN.O=C(O)C1OC(C(=O)O)C(C(=O)O)C1C(=O)O` (stereo not shown) [Example B6, 2-Methylpentane-1,5-diammonium-dihydrogen-tetrahydrofuran-2,3,4,5-tetracarboxylate] is “yes”; for `NCCCCCCCN.O=C(O)C1OC(C(=O)O)C(C(=O)O)C1C(=O)O` (stereo not shown) [Example B7, Heptane-1,7-diammonium-dihydrogen-tetrahydrofuran-2,3,4,5-tetracarboxylate] it is “yes”; for `NCCCCCCCCN.O=C(O)C1OC(C(=O)O)C(C(=O)O)C1C(=O)O` (stereo not shown) [Example B8, Octane-1,8-diammonium-dihydrogen-tetrahydrofuran-2,3,4,5-tetracarboxylate] it is “yes”. Take `NCCCCCCCCCN.O=C(O)C1OC(C(=O)O)C(C(=O)O)C1C(=O)O` (stereo not shown) [Example B9, Nonane-1,9-diammonium-dihydrogen-tetrahydrofuran-2,3,4,5-tetracarboxylate]: the Salt is water-soluble result was “yes”. The same measure, in the same setting: as for `NC1CCCC(N)C1.O=C(O)C1OC(C(=O)O)C(C(=O)O)C1C(=O)O` (stereo not shown) [Example B11, Cyclohexane-1,3-diammonium-dihydrogen-tetrahydrofuran-2,3,4,5-tetracarboxylate], the entry is “yes”; as for `NC1CCC(N)CC1.O=C(O)C1OC(C(=O)O)C(C(=O)O)C1C(=O)O` (stereo not shown) [Example B12, Cyclohexane-1,4-diammonium-dihydrogen-tetrahydrofuran-2,3,4,5-tetracarboxylate], “yes”; as for `NCC1CCCC(CN)C1.O=C(O)C1OC(C(=O)O)C(C(=O)O)C1C(=O)O` (stereo not shown) [Example B13, Cyclohexane-1,3-bis(methanammonium)-dihydrogen-tetrahydrofuran-2,3,4,5-tetracarboxylate], “yes”. Turning to `NCC1CCC(CN)CC1.O=C(O)C1OC(C(=O)O)C(C(=O)O)C1C(=O)O` (stereo not shown) [Example B14, Cyclohexane-1,4-bis(methanammonium)-dihydrogen-tetrahydrofuran-2,3,4,5-tetracarboxylate], the Salt is water-soluble entry is listed as “yes”. With `CC1(C)CC(N)CC(C)(CN)C1.O=C(O)C1OC(C(=O)O)C(C(=O)O)C1C(=O)O` (stereo not shown) [Example B16, Isophorone diammonium-dihydrogen-tetrahydrofuran-2,3,4,5-tetracarboxylate], the Salt is water-soluble result is on record as “yes”. In the case of `CC1CC(CC2CCC(N)C(C)C2)CCC1N.O=C(O)C1OC(C(=O)O)C(C(=O)O)C1C(=O)O` (stereo not shown) [Example B18, 4,4′-Methylene-bis(2-methylcyclohexylammonium)-dihydrogen-tetrahydrofuran-2,3,4,5-tetracarboxylate], the Salt is water-soluble entry is listed as “yes”. The same measure, in the same setting: as for `NC1CCC(CC2CCC(N)CC2)CC1.O=C(O)C1OC(C(=O)O)C(C(=O)O)C1C(=O)O` (stereo not shown) [Example V2], the entry is “no”. The same measure, in the same setting: the entry for `Cc1ccc(N)cc1N` [Example V7] is “no”. For the compound `Nc1cccc(N)n1.O=C(O)C1OC(C(=O)O)C(C(=O)O)C1C(=O)O` (stereo not shown) [Example V9], the Salt is water-soluble result is “no”. As for `Nc1ccc(Cc2ccc(N)cc2)cc1.O=C(O)C1OC(C(=O)O)C(C(=O)O)C1C(=O)O` (stereo not shown) [Example V11], the Salt is water-soluble entry is on record as “no”. The same measure, in the same setting: the entry for `Cc1cc(-c2ccc(N)c(C)c2)ccc1N` [Example V12] is “no”.

A short description of another series: Water solubility of the diamines, literature values. In kind it is physicochemical. The conditions noted are these: ratio of cited solubilities.
Take `CC1CC(CC2CCC(N)C(C)C2)CCC1N` (stereo not shown) [4,4′-methylene-bis(2-methylcyclohexylamine)]: the “water solubility less by a factor, versus 4,4′-methylene-bis(cyclohexylamine)” value came to 45.

Source of the values: patent US20230265247A1, “PROCESS FOR PREPARING POLYIMIDES” (Technische Universität Wien, priority 2020, published 2023).
